SMILES strings stand for the structures. Read-outs that look alike come from different tables or passages of the source.

For assay [1], the system named is E. coli. An excerpt: In the present disclosure, the term “sublethal concentration” refers to a concentration that affects the growth of the bacteria but is not enough to cause bacterial death. The concentration may vary and be determined depending on the particular ROS, bacteria, and/or culture medium employed. In one embodiment of the present disclosure, the sublethal concentration is defined as a minimum concentration at which the growth rate of bacteria remains constant until 1 hr after the treatment with ROS, which begin to decrease 2 hrs after the treatment with ROS.
H2O2 was used as ROS, which was prepared by 1:2 serial dilution.

Assay [2] deals with E. coli. Conditions: E. coli cultured in liquid medium with sub-lethal dose of hydrogen peroxide (FIG. 2). The procedure: Bacteria Imaging. The bacterial morphologies were observed under a laser scanning microscope using ZEN software. (Zeiss LSM 700). For sampling, 5˜10 ul of the bacteria was dropped on a glass slide and covered with a coverslip. After 20 min of drying in a fume hood, the bacteria were observed using a 100× objective lens. When the bacteria were cultured using a glass-bottom 96-well black plate (Ibidi #89626), the bacteria were fixed with cold acetone and blocked with 1% BSA in PBST for 30 min.
(§1) The serially diluted phage solution was plated to a solid medium containing sublethal dose of H2O2 by using a double agar overlay and the number of phages was counted.

Assay [3] concerns bacteriophage T4 in E. coli K12 (MG1655). The procedure: E. coli K12 (MG1655) was cultured overnight. The overnight culture was inoculated at 1:100 (vol:vol) ratio to a 10 ml LB broth in a 50 ml tube and incubated for 1 hr to prepare a fresh culture. When the E. coli K12 strain reached an OD600 of 0.3, H2O2 was added at a final concentration of 4.5 mM and incubated further for 1 hr until OD600 of 0.5˜0.7.
Then T4 was added at a multiplicity of infection (MOI) of 0.001 and incubated further for 5 min at 37° C. in a shaking incubator to allow for phage adsorption. Then the culture was centrifuged at 12,000 rmp for 5 min and the supernatant was removed. Ten ml of fresh LB broth was added to the pellet and resuspended. When the resuspension was completed, which was set to 0 min, the resuspend culture was incubated at a 37° Crotary incubator at 0 min, and 500 μl of the culture was taken at 5 minute intervals. Each of the culture was then plated by a double agar overlay and the number of phages were counted.

The test system of assay [4] is bacteriophage T4 on E. coli. Particulars: solid medium, sub-lethal dose of hydrogen peroxide. The method, then: Phage plaque size measurement. Phage plaques were allowed to form on a bacterial lawn and the size measured using a digital caliper.
as §1

Where [5] appears, read: 4.5 mM H2O2, liquid medium, T4 at MOI 0.001 (FIG. 3).

Turning to `OO` [H2O2, hydrogen peroxide], the sublethal concentration in the assay with E. coli [1] (liquid medium (FIG. 1)) stood at 4.5 mM; with E. coli [1] (solid medium), 0.2 mM. Further, the “bacterial morphology (filamentation, bacterial length)” value in the assay on E. coli [2] is listed as “bacterial filamentation was clearly observed”; in the assay on E. coli [2] (listed as hydrogen peroxide), “Increase in bacterial length due to bacterial filamentation”. The “delay of the start of the burst compared to the control” value in assay [3] (setting [5]) is 5 min. Besides, in assay [3] (setting [5]), the “increase of the size of the burst compared to the control” value is listed as 6 times. Further, the phage production entry in assay [3] (sublethal dose of H2O2) is “increase in the phage production was clearly observed”. Also, the “increase of plaque size (diameter) compared to the control” value in assay [4] is “at least 5 times”.

The record behind these values is patent US20200347362A1, “COMPOSITION AND METHOD FOR INCREASING PRODUCTION OF BACTERIOPHAGE USING REACTIVE OXYGEN SPECIES” (Hankuk University of Foreign Studies Research & Business …, priority 2017, published 2020).
